Structures can show the parent of a compound that is named as a salt. Where two headings read alike, the source gives them in different places.
Tests used:
Trichomonas vaginalis = assay: broth dilution assay, antitrichomonal activity; assay type: cell-based; conditions: Trichomonas vaginalis; broth dilution assay; read-out: Minimal Inhibitory Concentration
[1] = tested on: Bacteroides melanogenicus; assay: agar-dilution MIC vs. anaerobic bacteria; assay type: cell-based; conditions: Table 6, disodium salt, monohydrate
Eubacterium aerofaciens = assay: agar-dilution MIC vs. anaerobic bacteria; assay type: cell-based; conditions: strain 1235; Table 6; disodium salt, monohydrate
[2] = tested on: Fusobacterium necrophorum; assay: agar-dilution MIC vs. anaerobic bacteria; assay type: cell-based; conditions: strain 6054A; Table 6; disodium salt, monohydrate
Streptococcus pyogenes = assay: disc-plate screening procedure, zone of inhibition; conditions: read-out: Zone Diameter
Bacteroides fragilis [3] = assay: agar-dilution MIC vs. Bacteroides species; assay type: cell-based; conditions: 24 hours, Table 8, disodium salt, monohydrate
Description: (§1) The agar-dilution procedure described by the International Collaborative Study (ICS) group was used to determine MIC values.
(§2) The MIC values were determined by the agar-dilution method, the endpoints being read 24 hours after incubation, and are recorded in Table 8, which follows.

B. thetaiotaomicron = assay: agar-dilution MIC vs. Bacteroides species; assay type: cell-based; conditions: 24 hours, Table 8, disodium salt, monohydrate
Description: as §1, §2

B. vulgatis = assay: agar-dilution MIC vs. Bacteroides species; assay type: cell-based; conditions: B. vulgatis 1563; 24 hours; Table 8; disodium salt, monohydrate
Description: as §1, §2

B. corrodens = assay: agar-dilution MIC vs. Bacteroides species; assay type: cell-based; conditions: B. corrodens 1874; 24 hours; Table 8; disodium salt, monohydrate
Description: as §1, §2

Actinomyces israellii = assay: agar-dilution MIC vs. anaerobic bacteria; assay type: cell-based; conditions: strain W855; Table 6; disodium salt, monohydrate
Description: as §1
The MIC was determined by the agar-dilution method.

[4] = tested on: Peptococcus asaccharolyticus; assay: agar-dilution MIC vs. anaerobic bacteria; assay type: cell-based; conditions: strain 1302; Table 6; disodium salt, monohydrate
[5] = tested on: Streptococcus sp. (Group D); assay: disc-plate screening procedure, zone of inhibition; conditions: read-out: Zone Diameter
Staphylococcus aureus = assay: disc-plate screening procedure, zone of inhibition
Bacteroides fragilis [6] = assay: agar-dilution MIC vs. anaerobic bacteria; assay type: cell-based; conditions: Table 6, disodium salt, monohydrate
Fusobacterium symbiosum = assay: agar-dilution MIC vs. anaerobic bacteria; assay type: cell-based; conditions: strain 1470; Table 6; disodium salt, monohydrate
Peptococcus constellatus = assay: agar-dilution MIC vs. Peptococcus and Peptostreptococcus species; assay type: cell-based; conditions: Pc. constellatus 1468; Table 9; disodium salt, monohydrate
Description: as §1
(§3) The MIC values were determined by the agar-dilution method, and are recorded in Table 9, which follows.

[7] = tested on: Peptostreptococcus anaerobius; assay: as above; assay type: cell-based; conditions: Table 9, disodium salt, monohydrate
Description: as §1, §3

Peptococcus magnus = assay: as above; assay type: cell-based; conditions: Table 9, disodium salt, monohydrate
Description: as §1, §3

[8] = tested on: Peptococcus asaccharolyticus; assay: as above; assay type: cell-based; conditions: Table 9, disodium salt, monohydrate
Description: as §1, §3

[9] = tested on: Peptostreptococcus intermedius; assay: as above; assay type: cell-based; conditions: Table 9, disodium salt, monohydrate
Description: as §1, §3

Peptococcus prevoti = assay: as above; assay type: cell-based; conditions: Table 9, disodium salt, monohydrate
Description: as §1, §3

Bacteroides vulgatis = assay: agar-dilution MIC vs. anaerobic bacteria; assay type: cell-based; conditions: strain 1211; Table 6; disodium salt, monohydrate
Clostridium perfringens = assay: microbe, parasite or virus in culture; assay type: cell-based; conditions: strain 81; Table 6; disodium salt, monohydrate
hygroscopicity = assay type: physicochemical; conditions: monohydrate, brown powder
Streptococcus pneumoniae = assay: disc-plate screening procedure, zone of inhibition; conditions: read-out: Zone Diameter
Propionibacterium acnes = assay: agar-dilution MIC vs. anaerobic bacteria; assay type: cell-based; conditions: strain 79; Table 6; disodium salt, monohydrate

Cc1cccc(O)c1C(=O)OC(C)c1cccc2nc3c(C(=O)O)cccc3nc12 (stereo not shown) [A-32256 disodium salt, 6-[1-[(2-hydroxy-6-methylbenzoyl)oxy]ethyl]-1-phenazinecarboxylic acid, disodium salt, monohydrate]
MIC (Trichomonas vaginalis): < 0.975 µg/mL | MIC ([1]; strain 1856/28): 32 µg/mL | MIC ([1]; strain 2736): ≤ 0.5 µg/mL | MIC (Eubacterium aerofaciens): ≤ 0.5 µg/mL | MIC [2]: 1.0 µg/mL | zone of inhibition at 10 µg/disc (Streptococcus pyogenes): 17 mm | zone of inhibition at 100 µg/disc (Streptococcus pyogenes): 21 mm | MIC (Bacteroides fragilis [3]; B. fragilis 2): ≤ 0.015 µg/mL | MIC (Bacteroides fragilis [3]; B. fragilis 9): ≤ 0.015 µg/mL | MIC (Bacteroides fragilis [3]; B. fragilis 62): ≤ 0.015 µg/mL | MIC (Bacteroides fragilis [3]; B. fragilis 103): ≤ 0.015 µg/mL | MIC (Bacteroides fragilis [3]; B. fragilis 104): ≤ 0.015 µg/mL | MIC (Bacteroides fragilis [3]; B. fragilis 106): ≤ 0.015 µg/mL | MIC (Bacteroides fragilis [3]; B. fragilis 107): 0.03 µg/mL | MIC (Bacteroides fragilis [3]; B. fragilis 108): ≤ 0.015 µg/mL | MIC (Bacteroides fragilis [3]; B. fragilis 110): ≤ 0.015 µg/mL | MIC (Bacteroides fragilis [3]; B. fragilis 111): 0.03 µg/mL | MIC (Bacteroides fragilis [3]; B. fragilis 112): ≤ 0.015 µg/mL | MIC (Bacteroides fragilis [3]; B. fragilis 113): ≤ 0.015 µg/mL | MIC (Bacteroides fragilis [3]; B. fragilis 1470): ≤ 0.015 µg/mL | MIC (Bacteroides fragilis [3]; B. fragilis 1877): ≤ 0.015 µg/mL | MIC (Bacteroides fragilis [3]; V. fragilis 1451 (so in the source)): 0.03 µg/mL | MIC (B. thetaiotaomicron; B. thetaiotaomicron 1438): 0.03 µg/mL | MIC (B. thetaiotaomicron; B. thetaiotaomicron 1900A): 0.03 µg/mL | MIC (B. vulgatis): 0.03 µg/mL | MIC (B. corrodens): ≤ 0.015 µg/mL | MIC (Actinomyces israellii): ≤ 0.5 µg/mL | MIC [4]: ≤ 0.5 µg/mL | zone of inhibition at 10 µg/disc [5]: 15.6 mm | zone of inhibition at 100 µg/disc [5]: 20.4 mm | zone of inhibition at 10 µg/disc (Staphylococcus aureus; read-out: Zone Diameter, S. aureus 3055, benzylpenicillin-susceptible, 10 mcg/disc): 17.8 mm | zone of inhibition at 100 µg/disc (Staphylococcus aureus; read-out: Zone Diameter, S. aureus 3055, benzylpenicillin-susceptible, 100 mcg/disc): 25.2 mm | zone of inhibition at 10 µg/disc (Staphylococcus aureus; read-out: Zone Diameter, S. aureus 3074, benzylpenicillin-resistant, 10 mcg/disc): 16.2 mm | zone of inhibition at 100 µg/disc (Staphylococcus aureus; read-out: Zone Diameter, S. aureus 3074, benzylpenicillin-resistant, 100 mcg/disc): 23.3 mm | zone of inhibition at 10 µg/disc (Staphylococcus aureus; read-out: Zone Diameter, S. aureus 3130, methicillin-resistant, 10 mcg/disc): 19.8 mm | zone of inhibition at 100 µg/disc (Staphylococcus aureus; read-out: Zone Diameter, S. aureus 3130, methicillin-resistant, 100 mcg/disc): 26.8 mm | MIC (Bacteroides fragilis [6]; strain 111): ≤ 0.5 µg/mL | MIC (Bacteroides fragilis [6]; strain 1877): ≤ 0.5 µg/mL | MIC (Bacteroides fragilis [6]; strain 1936B): ≤ 0.5 µg/mL | MIC (Fusobacterium symbiosum): ≤ 0.5 µg/mL | MIC (Peptococcus constellatus): 0.5 µg/mL | MIC ([7]; Ps. anaerobius 8): 0.25 µg/mL | MIC ([7]; Ps. anaerobius 52): 0.5 µg/mL | MIC ([7]; Ps. anaerobius 59): ≤ 0.06 µg/mL | MIC ([7]; Ps. anaerobius 1418): ≤ 0.06 µg/mL | MIC ([7]; Ps. anaerobius 1428): 0.25 µg/mL | MIC ([7]; Ps. anaerobius 1451): ≤ 0.06 µg/mL | MIC ([7]; Ps. anaerobius 1477): 0.125 µg/mL | MIC (Peptococcus magnus; Pc. magnus 1401): 0.125 µg/mL | MIC (Peptococcus magnus; Pc. magnus 1421): 0.125 µg/mL | MIC (Peptococcus magnus; Pc. magnus 1477): 0.125 µg/mL | MIC ([8]; Pc. asaccharolyticus 1302): ≤ 0.06 µg/mL | MIC ([8]; Pc. asaccharolyticus 1344): ≤ 0.06 µg/mL | MIC ([9]; Ps. intermedius 1264): ≤ 0.06 µg/mL | MIC ([9]; Ps. intermedius 1624): ≤ 0.06 µg/mL | MIC (Peptococcus prevoti; Pc. prevoti 1281): 0.125 µg/mL | MIC (Peptococcus prevoti; Pc. prevoti 1293): 0.125 µg/mL | MIC (Peptococcus prevoti; Pc. prevoti 1407): 0.5 µg/mL | MIC (Bacteroides vulgatis): ≤ 0.5 µg/mL | MIC (Clostridium perfringens): 1.0 µg/mL | hygroscopicity (hygroscopicity): hygroscopic | zone of inhibition at 10 µg/disc (Streptococcus pneumoniae): 25 mm | zone of inhibition at 100 µg/disc (Streptococcus pneumoniae): 31 mm | MIC (Propionibacterium acnes): ≤ 0.5 µg/mL

Source: patent US4400510A, “A-32256 Phenazine antibiotic” (Eli Lilly and Company, priority 1981, dated 1983)
